# Results taken from publication PMC7075651 (Journal of Medicinal Chemistry, 2018).
# Read-outs that look alike come from different tables or passages of the source. Where a SMILES comes first, the peptide text is derived from it. [ ]: non-standard residue; d: D form. The star is where a group is joined. Palmitoyl = CCCCCCCCCCCCCCCC(=O)*; βAla = NCCC(=O)O
# Assays:
# IAV polymerase = assay: cells; assay type: cell-based, influenza A virus; conditions: read-out: IC50, influenza replicon activity
# [1] = target: neuraminidase from influenza A/Puerto Rico/8/1934 (H1N1) (Influenza A virus, UniProt P03468); assay type: biochemical
# [2] = target: neuraminidase from influenza A/Hong Kong/8/68 (H3N2) (Influenza A virus, UniProt Q91MA2); assay type: biochemical
# IAV = assay type: cell-based, influenza A virus
# [3] = target: HA1 subunit sialic acid-binding site (Influenza A virus, UniProt P03452); design: species or system influenza A/Puerto Rico/8/34 virus
# HA2 subunit = HA2 subunit (Influenza A virus, UniProt P03452); design: species or system H1/PR8 virus; conditions: pH 4.6
# N66 = N66 (Influenza A virus, UniProt P03437); assay type: binding, IAV H3 (X31); conditions: pH 8.8
# MERS-CoV pseudovirus = conditions: 12 h
# TZM-b1 cell = conditions: human, TZM-b1 cells
# in vivo = conditions: male, Sprague-Dawley, rat, iv, 5 mg/kg
# neuraminidase from influenza A/Puerto Rico/8/1934 (H1N1), sequence (P03468 whole entry, looked up): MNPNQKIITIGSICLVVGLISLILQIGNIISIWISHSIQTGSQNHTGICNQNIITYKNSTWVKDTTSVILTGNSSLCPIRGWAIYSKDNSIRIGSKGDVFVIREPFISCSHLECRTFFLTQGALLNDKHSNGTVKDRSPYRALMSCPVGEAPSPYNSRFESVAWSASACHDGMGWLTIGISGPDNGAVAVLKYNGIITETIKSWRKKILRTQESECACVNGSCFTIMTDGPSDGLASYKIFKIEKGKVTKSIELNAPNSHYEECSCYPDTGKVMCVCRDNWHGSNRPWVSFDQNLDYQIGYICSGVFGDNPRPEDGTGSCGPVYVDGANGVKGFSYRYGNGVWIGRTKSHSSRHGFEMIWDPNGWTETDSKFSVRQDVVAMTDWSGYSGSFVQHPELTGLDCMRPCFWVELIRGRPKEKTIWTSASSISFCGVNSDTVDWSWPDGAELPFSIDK
# neuraminidase from influenza A/Hong Kong/8/68 (H3N2), sequence (Q91MA2 whole entry, looked up): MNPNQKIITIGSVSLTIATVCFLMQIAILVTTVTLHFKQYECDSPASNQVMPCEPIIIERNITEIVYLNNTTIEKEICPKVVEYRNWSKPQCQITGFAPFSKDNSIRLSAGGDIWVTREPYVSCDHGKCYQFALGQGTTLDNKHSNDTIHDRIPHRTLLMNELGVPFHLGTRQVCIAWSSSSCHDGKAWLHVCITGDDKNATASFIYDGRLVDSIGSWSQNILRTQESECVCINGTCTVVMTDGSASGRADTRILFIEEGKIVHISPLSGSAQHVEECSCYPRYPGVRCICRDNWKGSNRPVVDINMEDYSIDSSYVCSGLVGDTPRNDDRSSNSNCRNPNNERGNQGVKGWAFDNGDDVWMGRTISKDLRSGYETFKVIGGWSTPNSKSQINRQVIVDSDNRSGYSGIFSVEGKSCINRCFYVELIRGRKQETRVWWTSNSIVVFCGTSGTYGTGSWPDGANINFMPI
# HA1 subunit sialic acid-binding site, sequence (P03452 18-343 limits assumed): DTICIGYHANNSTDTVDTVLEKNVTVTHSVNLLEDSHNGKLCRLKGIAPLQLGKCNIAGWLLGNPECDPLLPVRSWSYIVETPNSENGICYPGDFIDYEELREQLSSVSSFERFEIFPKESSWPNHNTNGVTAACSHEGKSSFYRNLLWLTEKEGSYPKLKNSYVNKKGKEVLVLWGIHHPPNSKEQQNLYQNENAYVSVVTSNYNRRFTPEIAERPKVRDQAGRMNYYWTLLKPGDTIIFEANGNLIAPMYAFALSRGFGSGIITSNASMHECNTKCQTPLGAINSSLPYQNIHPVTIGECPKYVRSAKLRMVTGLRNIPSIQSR
# HA1 subunit sialic acid-binding site, sequence (P03452 345-565 limits assumed): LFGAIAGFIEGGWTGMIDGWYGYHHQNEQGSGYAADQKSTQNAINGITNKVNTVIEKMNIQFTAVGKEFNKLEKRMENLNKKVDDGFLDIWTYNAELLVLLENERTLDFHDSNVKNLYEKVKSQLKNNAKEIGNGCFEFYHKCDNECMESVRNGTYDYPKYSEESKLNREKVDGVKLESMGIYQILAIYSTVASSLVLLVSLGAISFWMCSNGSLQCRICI
# HA2 subunit, sequence (P03452 18-343 limits assumed): as the sequence (P03452 18-343 limits assumed) above
# HA2 subunit, sequence (P03452 345-565 limits assumed): as the sequence (P03452 345-565 limits assumed) above
# N66, sequence (P03437 385-450 limits assumed): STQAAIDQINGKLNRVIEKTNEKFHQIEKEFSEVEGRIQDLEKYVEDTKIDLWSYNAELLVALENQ
SMILES,IC50 (IAV polymerase) [µM],"inhibition of neuraminidase of A/Puerto Rico/8/34 (H1N1), in words [1]","inhibition of neuraminidase of A/Hong Kong/8/68 (H3N2), in words [2]",antiviral activity in the remaining three time intervals (IAV),"reduction of viral load, interval 0–10 h (IAV)",inhibition of influenza virus-induced aggregation of chicken erythrocytes [3],lysis of erythrocytes caused by HA2 under acidic condition (HA2 subunit),N-PAGE of equimolar mixture with N66 (N66),EC50 (MERS-CoV pseudovirus) [µM],"CC50, cytotoxicity of compounds on MDCK cells (MDCK cells; dog, MDCK cells, 72 h) [µM]",CC50 on the TZM-b1 cell (TZM-b1 cell) [µM],level at 24 h (in vivo) [ng/mL],antiviral effect at the interval of 5–8 h (IAV),"IC50 (IAV polymerase; Influenza A virus, HEK-293T, 30 h) [µM]","CC50, cytotoxicity of compounds on MDCK cells (MDCK cells) [µM]"
CCCCCCCCCCCCCCCC(=O)NCCCC[C@H](NC(=O)CCNC(=O)[C@H](CCCCN)NC(=O)[C@H](CCCCN)NC(=O)[C@H](CCC(N)=O)NC(=O)[C@@H](NC(=O)[C@H](CCC(=O)O)NC(=O)[C@H](CCC(=O)O)NC(=O)[C@@H](NC(=O)[C@H](CCCCN)NC(=O)[C@H](CCCCN)NC(=O)[C@H](CCC(N)=O)NC(=O)[C@@H](NC(=O)[C@H](CCC(=O)O)NC(=O)[C@H](CCC(=O)O)NC(=O)[C@@H](NC(=O)[C@H](CCCCN)NC(=O)[C@H](CCCCN)NC(=O)[C@H](CCC(N)=O)NC(=O)[C@@H](NC(=O)[C@H](CCC(=O)O)NC(=O)[C@H](CCC(=O)O)NC(=O)[C@@H](NC(=O)[C@H](CCCCN)NC(=O)[C@H](CCCCN)NC(=O)[C@H](CCC(N)=O)NC(=O)[C@@H](NC(=O)[C@H](CCC(=O)O)NC(=O)[C@H](CCC(=O)O)NC(=O)[C@@H](NC(=O)[C@H](CCCCN)NC(=O)[C@H](CCCCN)NC(=O)[C@H](CCC(N)=O)NC(=O)[C@@H](NC(=O)[C@H](CCC(=O)O)NC(=O)[C@H](CCC(=O)O)NC(=O)[C@@H](NC(C)=O)[C@@H](C)CC)[C@@H](C)CC)[C@@H](C)CC)[C@@H](C)CC)[C@@H](C)CC)[C@@H](C)CC)[C@@H](C)CC)[C@@H](C)CC)[C@@H](C)CC)[C@@H](C)CC)C(N)=O [IIQ] (Ac-IEEIQKKIEEIQKKIEEIQKKIEEIQKKIEEIQKK[βAla]K(Palmitoyl)-NH2),> 100,neither IIQ nor favipiravir was able to disturb cleavage of the substrate,neither IIQ nor favipiravir was able to disturb cleavage of the substrate,no antiviral activity,approximately 60%,no apparent inhibition,decreased compared with the hemolytic effect of virus only,new bands at the upper positions in the gel,0.13,>100,> 100,> 100,–,–,–
"NC(=O)c1nc(F)cnc1O [favipiravir, reference compound]",–,neither IIQ nor favipiravir was able to disturb cleavage of the substrate,neither IIQ nor favipiravir was able to disturb cleavage of the substrate,–,–,–,–,–,–,–,–,–,continued to exert its full effect,–,–
"CCOC(=O)C1=C[C@@H](OC(CC)CC)[C@H](NC(C)=O)[C@@H](N)C1 [oseltamivir, reference compound]",–,–,–,–,–,–,–,–,–,–,–,–,–,> 100,>100
